Measured values from patent US20220177508A1, “C10-Cyclic Substituted 13-Membered Macrolides and Uses Thereof” (Zikani Therapeutics, Inc., priority 2018, published 2022).
In brackets after ≈: the same amount, converted by molar mass.

Legend:
Type in all cases: cell-based
[1] = system: S. aureus MP-12; assay: Broth dilution MIC determination (CLSI), S. aureus MP-12; conditions: Staphylococcus aureus, MP12; strain MP-12, broth dilution
[2] = system: E. coli MP-4; assay: Broth dilution MIC determination (CLSI), E. coli MP-4; conditions: Escherichia coli, MP4; strain MP-4, broth dilution; read-out: MIC E. coli MP-4
[3] = system: K. pneumoniae MP-546; assay: Broth dilution MIC determination (CLSI), K. pneumoniae MP-546; conditions: Klebsiella pneumoniae, MP546; strain MP-546, broth dilution
[4] = system: K. pneumoniae MP-648; assay: Broth dilution MIC determination (CLSI), K. pneumoniae MP-648; conditions: Klebsiella pneumoniae, MP648; strain MP-648, broth dilution
[5] = system: P. aeruginosa MP-3; assay: Broth dilution MIC determination (CLSI), P. aeruginosa MP-3; conditions: Pseudomonas aeruginosa, MP3; strain MP-3, broth dilution
[6] = system: A. baumannii MP-15; assay: Broth dilution MIC determination (CLSI), A. baumannii MP-15; conditions: Acinetobacter baumannii, MP15; strain MP-15, broth dilution; read-out: MIC A. baumanii MP-15

Row | MIC [1] | MIC [2] | MIC [3] | MIC [4] | MIC [5] | MIC [6] | SMILES
1 | 4 to 32 µg/mL (≈ 6.39 to 51.1 µM) | < 4 µg/mL | < 4 µg/mL | 4 to 32 µg/mL (≈ 6.39 to 51.1 µM) | > 32 µg/mL | > 32 µg/mL | CO[C@]1(C)C[C@@H](C)CN(C)[C@H](C2CN(CC(C)(C)C)C2)COC(=O)C(C)(C)C(=O)[C@H](C)[C@H]1O[C@@H]1O[C@H](C)C[C@H](N(C)C)[C@H]1O [Compound 114, (3R,6R,8R,9R,10R)-9-(((2S,3R,4S,6R)-4-(dimethylamino)-3-hydroxy-6-methyltetrahydro-2H-pyran-2-yl)oxy)-8-methoxy-4,6,8,10,12,12-hexamethyl-3-(1-neopentylazetidin-3-yl)-1-oxa-4-azacyclotridecane-11,13-dione]
2 | > 32 µg/mL | < 4 µg/mL | 4 to 32 µg/mL (≈ 6.54 to 52.3 µM) | 4 to 32 µg/mL (≈ 6.54 to 52.3 µM) | > 32 µg/mL | > 32 µg/mL | CCN(C)[C@H]1C[C@@H]([C@@H]2COC(=O)C(C)(C)C(=O)[C@H](C)[C@@H](O[C@@H]3O[C@H](C)C[C@H](N(C)C)[C@H]3O)[C@](C)(OC)C[C@@H](C)CN2C)C1 [Compound 165, (3R,6R,8R,9R,10R)-9-(((2S,3R,4S,6R)-4-(dimethylamino)-3-hydroxy-6-methyltetrahydro-2H-pyran-2-yl)oxy)-3-((1s,3S)-3-(ethyl(methyl)amino)cyclobutyl)-8-methoxy-4,6,8,10,12,12-hexamethyl-1-oxa-4-azacyclotridecane-11,13-dione]
3 | > 32 µg/mL | 4 to 32 µg/mL (≈ 5.98 to 47.8 µM) | > 32 µg/mL | > 32 µg/mL | > 32 µg/mL | > 32 µg/mL | CO[C@]1(C)C[C@@H](C)CN(C)[C@H](C2CN(C(=O)CCCN(C)C)C2)COC(=O)C(C)(C)C(=O)[C@H](C)[C@H]1O[C@@H]1O[C@H](C)C[C@H](N(C)C)[C@H]1O [Compound 139, (3R,6R,8R,9R,10R)-9-(((2S,3R,4S,6R)-4-(dimethylamino)-3-hydroxy-6-methyltetrahydro-2H-pyran-2-yl)oxy)-3-(1-(4-(dimethylamino)butanoyl)azetidin-3-yl)-8-methoxy-4,6,8,10,12,12-hexamethyl-1-oxa-4-azacyclotridecane-11,13-dione]
4 | > 32 µg/mL | < 4 µg/mL | < 4 µg/mL | 4 to 32 µg/mL (≈ 5.99 to 47.9 µM) | > 32 µg/mL | > 32 µg/mL | CO[C@]1(C)C[C@@H](C)CN(C)[C@H]([C@H]2C[C@@H](N(C)CC3CCCO3)C2)COC(=O)C(C)(C)C(=O)[C@H](C)[C@H]1O[C@@H]1O[C@H](C)C[C@H](N(C)C)[C@H]1O (stereo partly drawn) [Compound 31, (3R,6R,8R,9R,10R)-9-(((2S,3R,4S,6R)-4-(dimethylamino)-3-hydroxy-6-methyltetrahydro-2H-pyran-2-yl)oxy)-8-methoxy-4,6,8,10,12,12-hexamethyl-3-((1s,3S)-3-(methyl((tetrahydrofuran-2-yl)methyl)amino)cyclobutyl)-1-oxa-4-azacyclotridecane-11,13-dione]
5 | 4 to 32 µg/mL (≈ 6.25 to 50 µM) | < 4 µg/mL | < 4 µg/mL | < 4 µg/mL | > 32 µg/mL | 4 to 32 µg/mL (≈ 6.25 to 50 µM) | CO[C@]1(C)C[C@@H](C)CN(C)[C@H]([C@H]2C[C@H](N(C)CC(C)C)C2)COC(=O)C(C)(C)C(=O)[C@H](C)[C@H]1O[C@@H]1O[C@H](C)C[C@H](N(C)C)[C@H]1O [Compound 131, (3R,6R,8R,9R,10R)-9-(((2S,3R,4S,6R)-4-(dimethylamino)-3-hydroxy-6-methyltetrahydro-2H-pyran-2-yl)oxy)-3-((1r,3R)-3-(isobutyl(methyl)amino)cyclobutyl)-8-methoxy-4,6,8,10,12,12-hexamethyl-1-oxa-4-azacyclotridecane-11,13-dione]

More lines, now with the values behind:

Row | SMILES | MIC [1] | MIC [2] | MIC [3] | MIC [4] | MIC [5] | MIC [6]
6 | CO[C@]1(C)C[C@@H](C)CN(C)[C@H](C2CN(Cc3ccccn3)C2)COC(=O)C(C)(C)C(=O)[C@H](C)[C@H]1O[C@@H]1O[C@H](C)C[C@H](N(C)C)[C@H]1O [Compound 115, (3R,6R,8R,9R,10R)-9-(((2S,3R,4S,6R)-4-(dimethylamino)-3-hydroxy-6-methyltetrahydro-2H-pyran-2-yl)oxy)-8-methoxy-4,6,8,10,12,12-hexamethyl-3-(1-(pyridin-2-ylmethyl)azetidin-3-yl)-1-oxa-4-azacyclotridecane-11,13-dione] | 4 to 32 µg/mL (≈ 6.18 to 49.5 µM) | < 4 µg/mL | 4 to 32 µg/mL (≈ 6.18 to 49.5 µM) | 4 to 32 µg/mL (≈ 6.18 to 49.5 µM) | > 32 µg/mL | > 32 µg/mL
7 | CO[C@]1(C)C[C@@H](C)CN(C)[C@H](C2CN(C(=O)CN3CCCC3)C2)COC(=O)C(C)(C)C(=O)[C@H](C)[C@H]1O[C@@H]1O[C@H](C)C[C@H](N(C)C)[C@H]1O [Compound 138, (3R,6R,8R,9R,10R)-9-(((2S,3R,4S,6R)-4-(dimethylamino)-3-hydroxy-6-methyltetrahydro-2H-pyran-2-yl)oxy)-8-methoxy-4,6,8,10,12,12-hexamethyl-3-(1-(2-(pyrrolidin-1-yl)acetyl)azetidin-3-yl)-1-oxa-4-azacyclotridecane-11,13-dione] | 4 to 32 µg/mL (≈ 6 to 48 µM) | < 4 µg/mL | < 4 µg/mL | 4 to 32 µg/mL (≈ 6 to 48 µM) | > 32 µg/mL | > 32 µg/mL
8 | CO[C@]1(C)C[C@@H](C)CN(C)[C@H](C2CN(C(=O)[C@H]3CCN(C)C3)C2)COC(=O)C(C)(C)C(=O)[C@H](C)[C@H]1O[C@@H]1O[C@H](C)C[C@H](N(C)C)[C@H]1O [Compound 168, (3R,6R,8R,9R,10R)-9-(((2S,3R,4S,6R)-4-(dimethylamino)-3-hydroxy-6-methyltetrahydro-2H-pyran-2-yl)oxy)-8-methoxy-4,6,8,10,12,12-hexamethyl-3-(1-((S)-1-methylpyrrolidine-3-carbonyl)azetidin-3-yl)-1-oxa-4-azacyclotridecane-11,13-dione] | 4 to 32 µg/mL (≈ 6 to 48 µM) | < 4 µg/mL | 4 to 32 µg/mL (≈ 6 to 48 µM) | > 32 µg/mL | > 32 µg/mL | > 32 µg/mL
9 | CO[C@]1(C)C[C@@H](C)CN(C)[C@H](C2CN(Cc3cncnc3)C2)COC(=O)C(C)(C)C(=O)[C@H](C)[C@H]1O[C@@H]1O[C@H](C)C[C@H](N(C)C)[C@H]1O [Compound 177, (3R,6R,8R,9R,10R)-9-(((2S,3R,4S,6R)-4-(dimethylamino)-3-hydroxy-6-methyltetrahydro-2H-pyran-2-yl)oxy)-8-methoxy-4,6,8,10,12,12-hexamethyl-3-(1-(pyrimidin-5-ylmethyl)azetidin-3-yl)-1-oxa-4-azacyclotridecane-11,13-dione] | 4 to 32 µg/mL (≈ 6.17 to 49.4 µM) | 4 to 32 µg/mL (≈ 6.17 to 49.4 µM) | 4 to 32 µg/mL (≈ 6.17 to 49.4 µM) | > 32 µg/mL | > 32 µg/mL | > 32 µg/mL
10 | CO[C@]1(C)C[C@@H](C)CN(C)[C@H](C2CN(C(=O)CN(C)C)C2)[C@@H](C)OC(=O)C(C)(C)C(=O)[C@H](C)[C@H]1O[C@@H]1O[C@H](C)C[C@H](N(C)C)[C@H]1O [Compound 120, (2R,3R,6R,8R,9R,10R)-9-(((2S,3R,4S,6R)-4-(dimethylamino)-3-hydroxy-6-methyltetrahydro-2H-pyran-2-yl)oxy)-3-(1-(dimethylglycyl)azetidin-3-yl)-8-methoxy-2,4,6,8,10,12,12-heptamethyl-1-oxa-4-azacyclotridecane-11,13-dione] | > 32 µg/mL | 4 to 32 µg/mL (≈ 6.11 to 48.9 µM) | 4 to 32 µg/mL (≈ 6.11 to 48.9 µM) | > 32 µg/mL | > 32 µg/mL | > 32 µg/mL
11 | CO[C@]1(C)C[C@@H](C)CN(C)[C@H](C2CN(C(=O)CCCN(C)CC3CC3)C2)COC(=O)C(C)(C)C(=O)[C@H](C)[C@H]1O[C@@H]1O[C@H](C)C[C@H](N(C)C)[C@H]1O [Compound 61, (3R,6R,8R,9R,10R)-3-(1-(4-((cyclopropylmethyl)(methyl)amino)butanoyl)azetidin-3-yl)-9-(((2S,3R,4S,6R)-4-(dimethylamino)-3-hydroxy-6-methyltetrahydro-2H-pyran-2-yl)oxy)-8-methoxy-4,6,8,10,12,12-hexamethyl-1-oxa-4-azacyclotridecane-11,13-dione] | > 32 µg/mL | 4 to 32 µg/mL (≈ 5.64 to 45.1 µM) | 4 to 32 µg/mL (≈ 5.64 to 45.1 µM) | > 32 µg/mL | > 32 µg/mL | > 32 µg/mL
12 | CO[C@]1(C)C[C@@H](C)CN(C)[C@H](C2CN(Cc3ccncc3)C2)COC(=O)C(C)(C)C(=O)[C@H](C)[C@H]1O[C@@H]1O[C@H](C)C[C@H](N(C)C)[C@H]1O [Compound 176, (3R,6R,8R,9R,10R)-9-(((2S,3R,4S,6R)-4-(dimethylamino)-3-hydroxy-6-methyltetrahydro-2H-pyran-2-yl)oxy)-8-methoxy-4,6,8,10,12,12-hexamethyl-3-(1-(pyridin-4-ylmethyl)azetidin-3-yl)-1-oxa-4-azacyclotridecane-11,13-dione] | 4 to 32 µg/mL (≈ 6.18 to 49.5 µM) | 4 to 32 µg/mL (≈ 6.18 to 49.5 µM) | 4 to 32 µg/mL (≈ 6.18 to 49.5 µM) | > 32 µg/mL | > 32 µg/mL | > 32 µg/mL
13 | CO[C@]1(C)C[C@@H](C)CN(C)[C@H](C2CN(CC3CCOC3)C2)COC(=O)C(C)(C)C(=O)[C@H](C)[C@H]1O[C@@H]1O[C@H](C)C[C@H](N(C)C)[C@H]1O (stereo partly drawn) [Compound 127, (3R,6R,8R,9R,10R)-9-(((2S,3R,4S,6R)-4-(dimethylamino)-3-hydroxy-6-methyltetrahydro-2H-pyran-2-yl)oxy)-8-methoxy-4,6,8,10,12,12-hexamethyl-3-(1-((tetrahydrofuran-3-yl)methyl)azetidin-3-yl)-1-oxa-4-azacyclotridecane-11,13-dione] | 4 to 32 µg/mL (≈ 6.25 to 50 µM) | < 4 µg/mL | 4 to 32 µg/mL (≈ 6.25 to 50 µM) | 4 to 32 µg/mL (≈ 6.25 to 50 µM) | > 32 µg/mL | > 32 µg/mL
